Results reported in the NIST ThermoML archive (doi:10.1021/je700266n).
± gives the expanded uncertainty stated by the source.

Assays:
[1] = 101 kPa, Liquid
[2] = xn = mol fraction of the nth substance listed; conditions: 101 kPa, Liquid

CCCCn1cc[n+](C)c1.F[P-](F)(F)(F)(F)F [1-butyl-3-methylimidazolium hexafluorophosphate]
[1]
Conditions | mass density [kg/m3]
293.15 K | 1371.57 ± 2.6
298.15 K | 1367.22 ± 2.6
303.15 K | 1362.86 ± 2.5
308.15 K | 1358.56 ± 2.5
313.15 K | 1354.3 ± 2.5
323.15 K | 1345.98 ± 2.5
333.15 K | 1337.7 ± 2.4
343.15 K | 1330.76 ± 2.4

CCCCn1cc[n+](C)c1.F[B-](F)(F)F [1-butyl-3-methylimidazolium tetrafluoroborate]
[1]
Conditions | mass density [kg/m3]
293.15 K | 1195.71 ± 1.8
298.15 K | 1192.07 ± 1.8
303.15 K | 1188.37 ± 1.8
308.15 K | 1184.72 ± 1.8
313.15 K | 1181.43 ± 1.7
323.15 K | 1174.49 ± 1.7
333.15 K | 1166.89 ± 1.7
343.15 K | 1159.97 ± 1.6

CCCCn1cc[n+](C)c1.F[B-](F)(F)F [1-butyl-3-methylimidazolium tetrafluoroborate] + CC#N
mass density [kg/m3], [2]
Conditions | x1 = 0.1 | x1 = 0.1997 | x1 = 0.3 | x1 = 0.4005 | x1 = 0.4995 | x1 = 0.6015 | x1 = 0.6998 | x1 = 0.799 | x1 = 0.9012 | x1 = 1
293.15 K | 913.54 ± 0.47 | 993.5 ± 0.29 | 1047.76 ± 0.43 | 1086.95 ± 0.59 | 1116.42 ± 0.76 | 1138.87 ± 0.94 | 1156.73 ± 1.1 | 1171.64 ± 1.3 | 1185.23 ± 1.6 | 1195.71 ± 1.8
298.15 K | 908.78 ± 0.47 | 989.03 ± 0.3 | 1043.55 ± 0.42 | 1082.89 ± 0.58 | 1112.51 ± 0.75 | 1135.03 ± 0.93 | 1152.98 ± 1.1 | 1167.96 ± 1.3 | 1181.58 ± 1.5 | 1192.07 ± 1.8
303.15 K | 903.94 ± 0.48 | 984.51 ± 0.31 | 1039.25 ± 0.41 | 1078.74 ± 0.57 | 1108.44 ± 0.74 | 1131.08 ± 0.91 | 1149.11 ± 1.1 | 1164.16 ± 1.3 | 1177.8 ± 1.5 | 1188.37 ± 1.8
308.15 K | 899.1 ± 0.49 | 980.03 ± 0.32 | 1034.99 ± 0.4 | 1074.62 ± 0.56 | 1104.46 ± 0.72 | 1127.17 ± 0.9 | 1145.29 ± 1.1 | 1160.39 ± 1.3 | 1174.09 ± 1.5 | 1184.72 ± 1.8
313.15 K | 894.51 ± 0.5 | 975.82 ± 0.33 | 1031.1 ± 0.39 | 1070.84 ± 0.55 | 1100.65 ± 0.71 | 1123.64 ± 0.89 | 1141.82 ± 1.1 | 1157 ± 1.3 | 1170.73 ± 1.5 | 1181.43 ± 1.7
323.15 K | 885.05 ± 0.53 | 967.07 ± 0.35 | 1022.86 ± 0.37 | 1062.98 ± 0.53 | 1093.19 ± 0.69 | 1116.23 ± 0.87 | 1134.55 ± 1.1 | 1149.88 ± 1.2 | 1163.8 ± 1.5 | 1174.49 ± 1.7
333.15 K | 874.91 ± 0.55 | 957.71 ± 0.37 | 1013.98 ± 0.34 | 1054.45 ± 0.51 | 1084.93 ± 0.67 | 1108.14 ± 0.84 | 1126.63 ± 1 | 1142.09 ± 1.2 | 1156.07 ± 1.4 | 1166.89 ± 1.7
343.15 K | 866.42 ± 0.57 | 948.85 ± 0.39 | 1005.39 ± 0.32 | 1046.32 ± 0.48 | 1077.27 ± 0.65 | 1100.67 ± 0.82 | 1119.31 ± 1 | 1134.92 ± 1.2 | 1149.06 ± 1.4 | 1159.97 ± 1.6

CCCCn1cc[n+](C)c1.F[B-](F)(F)F [1-butyl-3-methylimidazolium tetrafluoroborate] + CCCO
mass density [kg/m3], [2]
Conditions | 293.15 K | 298.15 K | 303.15 K | 308.15 K | 313.15 K | 323.15 K | 333.15 K | 343.15 K
x1 = 0.3999 | 1054.66 ± 0.51 | 1051.03 ± 0.5 | 1047.17 ± 0.49 | 1043.37 ± 0.48 | 1039.88 ± 0.47 | 1032.41 ± 0.45 | 1024.28 ± 0.42 | 1016.75 ± 0.41
x1 = 0.4498 | 1072.68 ± 0.59 | 1068.9 ± 0.58 | 1065.03 ± 0.57 | 1061.22 ± 0.56 | 1057.72 ± 0.55 | 1050.32 ± 0.53 | 1042.29 ± 0.51 | 1034.83 ± 0.49
x1 = 0.5001 | 1089.08 ± 0.68 | 1085.28 ± 0.67 | 1081.39 ± 0.66 | 1077.57 ± 0.65 | 1074.09 ± 0.64 | 1066.73 ± 0.62 | 1058.77 ± 0.6 | 1051.38 ± 0.58
x1 = 0.6001 | 1117.7 ± 0.87 | 1113.99 ± 0.86 | 1110.15 ± 0.85 | 1106.39 ± 0.84 | 1103.01 ± 0.83 | 1095.73 ± 0.8 | 1087.82 ± 0.78 | 1080.57 ± 0.76
x1 = 0.6978 | 1141.41 ± 1.1 | 1137.71 ± 1.1 | 1133.91 ± 1 | 1130.15 ± 1 | 1126.78 ± 1 | 1119.64 ± 1 | 1111.83 ± 0.97 | 1104.68 ± 0.95
x1 = 0.8002 | 1163 ± 1.3 | 1159.35 ± 1.3 | 1155.61 ± 1.3 | 1151.92 ± 1.3 | 1148.61 ± 1.2 | 1141.54 ± 1.2 | 1133.81 ± 1.2 | 1126.78 ± 1.2
x1 = 0.9003 | 1180.65 ± 1.5 | 1176.99 ± 1.5 | 1173.25 ± 1.5 | 1169.56 ± 1.5 | 1166.26 ± 1.5 | 1159.25 ± 1.5 | 1151.58 ± 1.4 | 1144.59 ± 1.4
x1 = 1 | 1195.71 ± 1.8 | 1192.07 ± 1.8 | 1188.37 ± 1.8 | 1184.72 ± 1.8 | 1181.43 ± 1.7 | 1174.49 ± 1.7 | 1166.89 ± 1.7 | 1159.97 ± 1.6

CCCCn1cc[n+](C)c1.F[B-](F)(F)F [1-butyl-3-methylimidazolium tetrafluoroborate] + c1ccccc1
mass density [kg/m3], [2]
Conditions | 293.15 K | 298.15 K | 303.15 K | 308.15 K | 313.15 K | 323.15 K | 333.15 K | 343.15 K
x1 = 0.4871 | 1105.2 ± 0.72 | 1101.28 ± 0.7 | 1097.21 ± 0.69 | 1093.23 ± 0.68 | 1089.58 ± 0.67 | 1081.9 ± 0.65 | 1073.73 ± 0.63 | 1065.72 ± 0.6
x1 = 0.5499 | 1120.99 ± 0.82 | 1117.14 ± 0.81 | 1113.2 ± 0.8 | 1109.3 ± 0.79 | 1105.72 ± 0.78 | 1098.23 ± 0.76 | 1090.17 ± 0.73 | 1082.51 ± 0.71
x1 = 0.5999 | 1132.31 ± 0.91 | 1128.5 ± 0.9 | 1124.57 ± 0.89 | 1120.71 ± 0.88 | 1117.22 ± 0.87 | 1109.81 ± 0.85 | 1101.75 ± 0.82 | 1094.35 ± 0.8
x1 = 0.7001 | 1151.84 ± 1.1 | 1148.13 ± 1.1 | 1144.26 ± 1.1 | 1140.47 ± 1.1 | 1137.04 ± 1.1 | 1129.83 ± 1 | 1121.95 ± 1 | 1114.7 ± 0.98
x1 = 0.8 | 1168.73 ± 1.3 | 1165.02 ± 1.3 | 1161.24 ± 1.3 | 1157.48 ± 1.3 | 1154.13 ± 1.3 | 1147.03 ± 1.2 | 1139.28 ± 1.2 | 1132.17 ± 1.2
x1 = 0.899 | 1182.8 ± 1.5 | 1179.15 ± 1.5 | 1175.38 ± 1.5 | 1171.67 ± 1.5 | 1168.35 ± 1.5 | 1161.36 ± 1.5 | 1153.64 ± 1.4 | 1146.64 ± 1.4
x1 = 0.9498 | 1189.44 ± 1.7 | 1185.85 ± 1.6 | 1182.12 ± 1.6 | 1178.45 ± 1.6 | 1175.16 ± 1.6 | 1168.19 ± 1.6 | 1160.54 ± 1.6 | 1153.58 ± 1.5
x1 = 1 | 1195.71 ± 1.8 | 1192.07 ± 1.8 | 1188.37 ± 1.8 | 1184.72 ± 1.8 | 1181.43 ± 1.7 | 1174.49 ± 1.7 | 1166.89 ± 1.7 | 1159.97 ± 1.6

CC#N [acetonitrile]
[1]
Conditions | mass density [kg/m3]
293.15 K | 782.3 ± 0.7
298.15 K | 776.93 ± 0.71
303.15 K | 771.44 ± 0.73
308.15 K | 765.97 ± 0.74
313.15 K | 760.68 ± 0.75
323.15 K | 749.73 ± 0.78
333.15 K | 738.19 ± 0.81
343.15 K | 726.94 ± 0.83

CC#N [acetonitrile] + CCCCn1cc[n+](C)c1.F[B-](F)(F)F
[2], x2 = 0
Conditions | mass density [kg/m3]
293.15 K | 782.3 ± 0.7
298.15 K | 776.93 ± 0.71
303.15 K | 771.44 ± 0.73
308.15 K | 765.97 ± 0.74
313.15 K | 760.68 ± 0.75
323.15 K | 749.73 ± 0.78
333.15 K | 738.19 ± 0.81
343.15 K | 726.94 ± 0.83

CC#N [acetonitrile] + CCCCn1cc[n+](C)c1.F[P-](F)(F)(F)(F)F
[2], x2 = 0
Conditions | mass density [kg/m3]
293.15 K | 782.3 ± 0.7
298.15 K | 776.93 ± 0.71
303.15 K | 771.44 ± 0.73
308.15 K | 765.97 ± 0.74
313.15 K | 760.68 ± 0.75
323.15 K | 749.73 ± 0.78
333.15 K | 738.19 ± 0.81
343.15 K | 726.94 ± 0.83

c1ccccc1 [benzene]
[1]
Conditions | mass density [kg/m3]
293.15 K | 878.23 ± 0.48
298.15 K | 873.11 ± 0.49
303.15 K | 867.59 ± 0.5
308.15 K | 862.21 ± 0.52
313.15 K | 856.82 ± 0.53
323.15 K | 846.05 ± 0.55
333.15 K | 835.76 ± 0.58
343.15 K | 824.89 ± 0.6

c1ccccc1 [benzene] + CCCCn1cc[n+](C)c1.F[B-](F)(F)F
[2], x2 = 0
Conditions | mass density [kg/m3]
293.15 K | 878.23 ± 0.48
298.15 K | 873.11 ± 0.49
303.15 K | 867.59 ± 0.5
308.15 K | 862.21 ± 0.52
313.15 K | 856.82 ± 0.53
323.15 K | 846.05 ± 0.55
333.15 K | 835.76 ± 0.58
343.15 K | 824.89 ± 0.6

c1ccccc1 [benzene] + CCCCn1cc[n+](C)c1.F[P-](F)(F)(F)(F)F
[2], x2 = 0
Conditions | mass density [kg/m3]
293.15 K | 878.23 ± 0.48
298.15 K | 873.11 ± 0.49
303.15 K | 867.59 ± 0.5
308.15 K | 862.21 ± 0.52
313.15 K | 856.82 ± 0.53
323.15 K | 846.05 ± 0.55
333.15 K | 835.76 ± 0.58
343.15 K | 824.89 ± 0.6

CCCO [propan-1-ol]
[1]
Conditions | mass density [kg/m3]
293.15 K | 804.97 ± 0.65
298.15 K | 801.01 ± 0.66
303.15 K | 796.89 ± 0.67
308.15 K | 792.83 ± 0.68
313.15 K | 789.07 ± 0.69
323.15 K | 780.74 ± 0.71
333.15 K | 771.75 ± 0.73
343.15 K | 762.86 ± 0.75

CCCO [propan-1-ol] + CCCCn1cc[n+](C)c1.F[B-](F)(F)F
[2], x2 = 0
Conditions | mass density [kg/m3]
293.15 K | 804.97 ± 0.65
298.15 K | 801.01 ± 0.66
303.15 K | 796.89 ± 0.67
308.15 K | 792.83 ± 0.68
313.15 K | 789.07 ± 0.69
323.15 K | 780.74 ± 0.71
333.15 K | 771.75 ± 0.73
343.15 K | 762.86 ± 0.75
